Entries after “also recorded” stand apart in the source; their conditions may differ.
Experiments:
S. aureus TarL = target: T1, S. aureus TarL (Staphylococcus aureus, UniProt Q2G1B8); test: In vitro enzyme inhibition assay, TarL (radiometric); format: biochemical; settings: targocil 50 μg/mL; enzyme 200 nM
T1 construct: made in house
T1 sequence (Q2G1B8 1-562): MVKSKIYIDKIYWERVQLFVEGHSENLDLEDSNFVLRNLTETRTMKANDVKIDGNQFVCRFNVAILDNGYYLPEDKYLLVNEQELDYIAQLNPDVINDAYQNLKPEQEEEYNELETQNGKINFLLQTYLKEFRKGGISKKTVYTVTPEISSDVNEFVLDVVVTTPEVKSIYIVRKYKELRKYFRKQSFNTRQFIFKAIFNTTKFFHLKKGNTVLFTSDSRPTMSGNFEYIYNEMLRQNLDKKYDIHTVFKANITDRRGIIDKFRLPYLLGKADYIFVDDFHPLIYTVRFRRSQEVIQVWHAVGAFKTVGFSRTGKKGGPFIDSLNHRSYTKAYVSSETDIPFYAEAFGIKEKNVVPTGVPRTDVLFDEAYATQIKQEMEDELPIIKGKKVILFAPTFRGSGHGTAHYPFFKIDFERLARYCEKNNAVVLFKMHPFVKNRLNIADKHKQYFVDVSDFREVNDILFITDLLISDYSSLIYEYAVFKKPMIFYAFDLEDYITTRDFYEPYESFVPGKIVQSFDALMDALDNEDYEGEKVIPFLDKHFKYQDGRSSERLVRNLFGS
Description: (A) TarL reaction with heat-treated enzyme; (B) TarL reaction with active enzyme; (C) TarL reaction with 5 μM targocil; (D) TarL reaction with 50 μM targocil; (E) TarL reaction with 100 μM targocil.
(§1) S. aureus TarB, D, F, I, and L were cloned, overexpressed and purified as described previously (S. Brown, Y. H. Zhang, S. Walker, Chemistry & Biology 15, 12, Jan. 2008.) Radiometric in vitro assays were run to test the inhibitory effects of targocil on Tar B, D, F, and L, while TarI was assayed for targocil inhibition using an HPLC assay using conditions similar to those previously reported (ibid). See below for exact reaction conditions. […] In each case, a reaction with no targocil served as a negative control (active enzymatic reaction) and a reaction with heat-treated enzyme served as a positive control (no enzymatic reaction). Targocil was incubated with all reaction components except the substrates at room temperature. After 10 minutes, substrates were added and the reactions were allowed to proceed for 60 minutes. The reactions were quenched with DMF and the products were imaged/monitored as previously described (ibid).
TarL in vitro inhibition assay protocol and data. Each 3 μL reaction contained 1 μM [14C] (GroP)2-ManNAc-β-(1,4)-GlcNAc-pp-farnesyl, 50 μM CDP-ribitol, 20 mM Tris base pH 7.5, 100 mM NaCl, 10 mM MgCl2, 200 nM TarL and either 5, 50, or 100 μM targocil. […]

S. aureus TarD = target: T2, S. aureus TarD (Staphylococcus aureus, UniProt Q2G2X2); test: In vitro enzyme inhibition assay, TarD (radiometric); format: biochemical; settings: targocil 50 μg/mL; enzyme 200 nM
T2 construct: made in house
T2 sequence (Q2G2X2 1-132): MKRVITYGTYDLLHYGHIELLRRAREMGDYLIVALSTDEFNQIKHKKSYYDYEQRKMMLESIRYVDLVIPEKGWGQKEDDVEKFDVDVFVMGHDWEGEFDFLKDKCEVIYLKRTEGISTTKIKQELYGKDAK
Description: as §1
TarD in vitro inhibition assay protocol and data. Each 3 μL reaction contained 50 mM HEPES pH 8, 10 mM MgCl2, 1 mM DTT, 1 μM [14C]-glycerol-3-phosphate, 9 μM glycerol-3-phosphate, 20 μM CTP, 200 nM TarD. The reactions were quenched with 3 μL DMF, and 2 μL of the reaction mixture were combined with 2 μL 2× loading dye (40% glycerol, 0.2% bromophenol blue) and loaded onto a 20% acrylamide/0.25M TBE gel as described previously (ibid.). […]

[1] = system: S. aureus RN4220 invasion of human corneal epithelial cells (HCEC); test: Human corneal epithelial cell (HCEC) invasion / internalization model; format: cell-based, Staphylococcus aureus; settings: wildtype S. aureus grown with 8×MIC (20 μg/mL) of targocil
Description: An overnight culture of S. aureus RN4220 and its isogenic ΔtarO strain were grown with shaking at 37° C. in either 1% DMSO or in the presence of 8×MIC (20 μg/mL) of targocil 1% DMSO. Human corneal epithelial cells (HCEC) were cultured separately in 24-well plates. Prior to incubation with HCEC, the bacteria were washed twice with keratinocyte culture media—serum free (KBM-SFM) including 8×MIC of targocil in 1% DMSO or 1% DMSO. The S. aureus strains (approximately 10^8 CFU in 1 mL of KBM-SFM including either 8×MIC of targocil 1% DMSO or 1% DMSO) were then applied to the HCEC monolayers. (The initial inoculum of each group was determined by serial dilution and plate counting.) Following incubation at 37° C. for 1 h, bacteria were removed and the monolayers were washed twice with Hank's balanced salt solution (HBSS), and covered with 1 mL of KBM-SFM containing gentamycin (100 μg/mL) and incubated at 37° C. for 1 h to kill residual extracellular bacteria. The monolayers were washed twice with HBSS, lysed, and homogenized in 1 mL of lysis solution (0.25% trypsin-0.025% Triton X-100). Lysates were serially diluted and plated on brain-heart infusion agar, and colonies were enumerated following overnight incubation at 37° C.
The data workup was done by first determining the percentage of internalized bacteria compared to the initial inoculum. […]

[2] = system: S. aureus RN4220 TarG:F82L (m4); test: MIC analysis of RN4220 carrying the mutant tarG allele TarG:F82L; format: cell-based, Staphylococcus aureus; settings: mutant allele exchanged into RN4220
Text: Therefore, we conclude that TarG is a target of targocil. […] (Davidson A L, Dassa E, Orelle C, & Chen J (2008) Microbiology and Molecular Biology Reviews 72:317-364) In addition to functioning as antibiotics, inhibitors such as targocil, and derivatives thereof, could be valuable tools for mechanistic and structural analyses of ABC transporters.

## CCN(CC)c1nc2c(S(=O)(=O)c3ccccc3)nnn2c2ccc(Cl)cc12 [7-chloro-N,N-diethyl-3-(phenylsulfonyl)-[1,2,3]triazolo[1,5-a]quinazolin-5-amine]
S. aureus TarL
  inhibition of TarL: None of these enzymes was inhibited
S. aureus TarD
  inhibition of TarD: None of these enzymes was inhibited
[1]
  invasion of HCECs by targocil-treated bacteria: behaved similarly to the ΔtarO strain
[2]
  resistance to targocil of TarG:F82L strain: fully resistant; also recorded: confer resistance

Source: patent US8598342B2, “Methods and compounds for antimicrobial intervention” (President and Fellows of Harvard College, priority 2008, dated 2013)
